According to ChEMBL document CHEMBL4325920, “Discovery of Clinical Candidate BMS-823778 as an Inhibitor of Human 11β-Hydroxysteroid Dehydrogenase Type 1 (11β-HSD-1)” (ACS Med Chem Lett, 2018):

Legend:
[1] = target: 11-beta-hydroxysteroid dehydrogenase 1 (Mus musculus, UniProt P50172); assay: Inhibition of recombinant mouse 11beta-HSD1 expressed in HEK293 cell microsomes using [3H]cortisone as substrate after 4 hrs by homogeneous immuno-radiometric scintillation proximity assay
[2] = target: T1, Nuclear receptor subfamily 1 group I member 2 (Homo sapiens, UniProt O75469); assay: Activation of PXR (unknown origin); format: ADME
T1 sequence (O75469 whole entry): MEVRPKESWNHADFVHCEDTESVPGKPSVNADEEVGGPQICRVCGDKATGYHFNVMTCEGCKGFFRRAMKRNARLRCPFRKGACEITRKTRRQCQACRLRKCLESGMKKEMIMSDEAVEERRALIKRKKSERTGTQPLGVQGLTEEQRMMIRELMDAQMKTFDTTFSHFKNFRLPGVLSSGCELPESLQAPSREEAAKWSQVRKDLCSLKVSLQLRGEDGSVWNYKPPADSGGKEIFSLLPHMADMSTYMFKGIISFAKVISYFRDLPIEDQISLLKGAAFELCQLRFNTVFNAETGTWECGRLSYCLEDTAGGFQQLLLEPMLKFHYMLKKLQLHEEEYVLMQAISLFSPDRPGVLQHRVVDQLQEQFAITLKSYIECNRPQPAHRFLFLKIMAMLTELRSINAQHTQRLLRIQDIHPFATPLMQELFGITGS

Sequence of 11-beta-hydroxysteroid dehydrogenase 1 (P50172 whole entry): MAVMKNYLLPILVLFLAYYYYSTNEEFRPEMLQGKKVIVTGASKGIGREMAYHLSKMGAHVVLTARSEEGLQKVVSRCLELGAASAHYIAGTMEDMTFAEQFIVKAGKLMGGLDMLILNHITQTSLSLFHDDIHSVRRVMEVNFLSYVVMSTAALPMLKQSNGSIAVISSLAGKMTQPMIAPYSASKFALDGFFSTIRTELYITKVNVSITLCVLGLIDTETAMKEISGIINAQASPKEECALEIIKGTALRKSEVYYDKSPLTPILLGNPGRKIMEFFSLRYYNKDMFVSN

IC50 [1]	EC50 [2]	SMILES
1.15 µM	1.3 µM	CC(C)(CCO)c1cccn2c(C3(c4ccc(Cl)cc4)CC3)nnc12
8.06 µM	48 µM	OC(c1cccn2c(C3(c4ccc(Cl)cc4)CC3)nnc12)C1CC1 (stereo not given)

Second part, the compound before the results:

SMILES	IC50 [1]	EC50 [2]
OCCCc1cccn2c(C3(c4ccc(Cl)cc4)CC3)nnc12	5.7 µM	25 µM
CC(C)(C(=O)O)c1cccn2c(C3(c4ccc(Cl)cc4)CC3)nnc12	> 10 µM	> 50 µM
OCC(O)c1cccn2c(C3(c4ccc(Cl)cc4)CC3)nnc12 (stereo not given)	> 10 µM	> 50 µM
